This is an account of results in ChEMBL document CHEMBL1135133, “Scaffold hopping and optimization towards libraries of glycogen synthase kinase-3 inhibitors” (Bioorg Med Chem Lett, 2002).

The target in the experiment is Glycogen synthase kinase-3 beta (Homo sapiens, UniProt P49841). In words: Inhibitory concentration against human Glycogen synthase kinase-3.
Chain of Glycogen synthase kinase-3 beta (P49841 whole entry): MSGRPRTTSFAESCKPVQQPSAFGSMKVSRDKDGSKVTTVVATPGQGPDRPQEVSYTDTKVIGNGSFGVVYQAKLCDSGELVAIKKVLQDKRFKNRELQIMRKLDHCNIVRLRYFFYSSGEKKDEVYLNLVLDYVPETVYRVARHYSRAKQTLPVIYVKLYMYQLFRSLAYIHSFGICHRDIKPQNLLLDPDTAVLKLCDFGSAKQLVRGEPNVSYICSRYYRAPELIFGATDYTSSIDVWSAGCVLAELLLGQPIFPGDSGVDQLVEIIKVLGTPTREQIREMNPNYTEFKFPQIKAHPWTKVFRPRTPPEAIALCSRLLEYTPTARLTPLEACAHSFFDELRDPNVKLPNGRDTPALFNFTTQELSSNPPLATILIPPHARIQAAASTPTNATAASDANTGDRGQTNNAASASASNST
`O=C(Cc1ccc(CSc2nnc(-c3ccncc3)o2)cc1)NCCc1ccccc1F`: inhibition was half-maximal at 1.2 µM (IC50).
The value for `c1ccc(CCSc2nnc(-c3ccncc3)o2)cc1` was 29 µM; that for `Ic1ccc(CSc2nnc(-c3ccncc3)o2)cc1` was 198 µM; that for `Cc1nc(-c2cccc(CSc3nnc(-c4ccncc4)o3)c2)no1` was over 250 µM.
The value for `O=C(O)Cc1ccc(CSc2nnc(-c3ccccn3)s2)cc1` was over 250 µM.
Take `O=C(O)Cc1ccc(CSc2nnc(-c3ccncc3)o2)cc1`: the IC50 amounted to 8 µM.
For `Fc1cccc(CSc2nnc(-c3ccncc3)o2)c1`, the IC50 was found to be 1.4 µM.
The value for `O=C(O)Cc1ccc(CSc2n[nH]c(-c3ccncc3)n2)cc1` was over 250 µM.
Under `O=C(O)c1cccc(CSc2nnc(-c3ccncc3)o2)c1` stands 235 µM.
Under `O=C(O)Cc1ccc(CSc2nnc(-c3ccncc3)s2)cc1` stands 11 µM; under `Clc1cccc(CSc2nnc(-c3ccncc3)o2)c1`, 0.82 µM; under `Clc1ccccc1CSc1nnc(-c2ccncc2)o1`, 12 µM.
`c1ccc(CSc2nnc(-c3ccncc3)o2)cc1`: inhibition was half-maximal at 6.7 µM (IC50).
The value for `O=C(O)Cc1ccc(CSc2nnc(-c3cccnc3)s2)cc1` was over 250 µM.
Under `O=C(O)c1ccc(CSc2nnc(-c3ccncc3)o2)cc1` stands 29 µM; under `COC(=O)c1cccc(CSc2nnc(-c3ccncc3)o2)c1`, 1.1 µM.

Broadly, the IC50 is the midpoint of a concentration-inhibition curve. Lower therefore signals higher potency.
